Measured values: patent publication US8178506B2, “Oligomeric compounds and compositions for use in modulation of small non-coding RNAs” (Regulus Therapeutics Inc., priority 2003, dated 2012)
In the oligonucleotide strings, read from the 5' end, every base follows the letter of its sugar. An asterisk marks phosphorothioate; unmarked linkages are phosphodiester. Other units and linkages are bracketed, terminal groups are in braces. A string of capitals states the bases alone. e = 2'-O-(2-methoxyethyl) (MOE); [5mC] = 5-methylcytosine

Legend:
[1] = system: aP2; test: aP2 mRNA expression in adipocytes (real-time PCR); assay type: cell-based, human; details: differentiating adipocytes transfected with oligomeric compound; Table 75
[2] = system: Glut4; test: Glut4 mRNA expression in adipocytes (real-time PCR); assay type: cell-based, human; details: differentiating adipocytes transfected with oligomeric compound; Table 75
[3] = system: HSL; test: HSL mRNA expression in adipocytes (real-time PCR); assay type: cell-based, human; details: differentiating adipocytes transfected with oligomeric compound; Table 75
[4] = system: HuVECs; test: Endothelial tube formation assay in HuVECs; details: 75 nM oligomeric compound, Table 58
Description: In some embodiments, HUVECs are used to measure the effects of oligomeric compounds of the invention on endothelial tube formation activity. The tube formation assay is performed using an in vitro Angiogenesis Assay Kit (Chemicon International, Temecula, Calif.).
Untreated control cells receive LIPOFECTIN™ only.
Approximately fifty hours after transfection, cells are transferred to 96-well plates coated with ECMatrix™ (Chemicon International). Under these conditions, untreated HUVECs form tube-like structures. After an overnight incubation at 37° C., treated and untreated cells are inspected by light microscopy. Tube formation in cells treated with oligomeric compounds is compared to that in untreated control cells. Individual wells are assigned discrete scores from 1 to 5 depending on the extent of tube formation. A score of 1 refers to a well with no tube formation while a score of 5 is given to wells where all cells are forming an extensive tubular network.
In one embodiment, primary human umbilical vein endothelial cells (HuVECs) were used to measure the effects of oligomeric compounds targeted to miRNAs on tube formation activity. HuVECs were routinely cultured in EBM (Clonetics Corporation, Walkersville, Md.) supplemented with SingleQuots supplements (Clonetics Corporation, Walkersville, Md.). […] HuVECs are plated at 3000 cells/well in 96-well plates. One day later, cells are transfected with oligomeric compounds. The tube formation assay is performed using an in vitro Angiogenesis Assay Kit (Chemicon International, Temecula, Calif.).
ISIS 29248 and ISIS 196103 are chimeric 5-10-52′-MOE gapmer oligonucleotides. […] All cytidine residues are 5-methylcytidines. ISIS 342672 (SEQ ID NO: 789) contains 13 mismatches with respect to the mature mir-143 miRNA, and was also used as a negative control. ISIS 342672 is a uniform 2′-MOE phosphorothioate oligomeric compound 22 nucleotides in length. All cytidine residues are 5-methylcytidines.
Oligomeric compound was mixed with LIPOFECTIN™ (Invitrogen Life Technologies, Carlsbad, Calif.) in OPTI-MEM™ (Invitrogen Life Technologies, Carlsbad, Calif.) to achieve a final concentration of 75 nM of oligomeric compound and 2.25 μg/mL LIPOFECTIN™. Before adding to cells, the oligomeric compound, LIPOFECTIN™ and OPTI-MEM™ were mixed thoroughly and incubated for 0.5 hrs. Untreated control cells received LIPOFECTIN™ only. […] Compounds targeted to miRNAs were tested in triplicate, and ISIS 29848 was tested in up to six replicates. […] 100 μL of full growth medium was added to each well. Fifty hours after transfection, cells are transferred to 96-well plates coated with ECMa-trix™ (Chemicon Inter-national). Under these conditions, untreated HuVECs form tube-like structures.

[5] = system: IGFBP-1; test: IGFBP-1 mRNA expression in HepG2 cells; assay type: cell-based, human
[6] = system: follistatin; test: Follistatin mRNA expression in HepG2 cells; assay type: cell-based, human
[7] = system: PPARγ; test: PPARγ mRNA expression in adipocytes (real-time PCR); assay type: cell-based, human; details: differentiating adipocytes transfected with oligomeric compound; Table 75
[8] = Experiment 2, insulin treated: HepG2 cells transfected with oligomeric compound, 1 nM insulin for four hours, UTC + 1 nM insulin = 100
[9] = HepG2 cells, Experiment 1, basal (no insulin), four hours, UTC = 100

With “327946 (antisense eA*eG*eG*e[5mC]*eG*eA*eA*eG*eG*eA*eT*eG*eA*e[5mC]*eA*eA*eA*eG*eG*eG*eA*eA) [compound 327946]” the “aP2 mRNA” value [1] was 73 percentage of untreated control (UTC), the “GLUT4 mRNA” value [2] was 68 percentage of untreated control (UTC) and the “HSL mRNA” value [3] was 76 percentage of untreated control (UTC). The “% Activity Relative to UTC (tube formation)” value [4] was 51.9%, the “IGFBP1 mRNA expression” value [5, 8] was 138 and the “IGFBP1 mRNA” value [5, 9] was 108. The “Follistatin mRNA expression” value [6, 8] was 109, the “Follistatin mRNA” value [6, 9] was 103 and the “PPAR gamma mRNA” value [7] was 81 percentage of untreated control (UTC).
